Source: US10538498B2, “1,3,4-oxadiazole sulfonamide derivative compounds as histone deacetylase 6 inhibitor, and the pharmaceutical composition comprising the same” (Chong Kun Dang Pharmaceutical Corp., priority 2015, dated 2020)

Molecular target: T1, human recombinant HDAC6 (Homo sapiens, UniProt Q9UBN7)
T1 construct: purchased Calbiochem 382180
T1 sequence (Q9UBN7 1-1215): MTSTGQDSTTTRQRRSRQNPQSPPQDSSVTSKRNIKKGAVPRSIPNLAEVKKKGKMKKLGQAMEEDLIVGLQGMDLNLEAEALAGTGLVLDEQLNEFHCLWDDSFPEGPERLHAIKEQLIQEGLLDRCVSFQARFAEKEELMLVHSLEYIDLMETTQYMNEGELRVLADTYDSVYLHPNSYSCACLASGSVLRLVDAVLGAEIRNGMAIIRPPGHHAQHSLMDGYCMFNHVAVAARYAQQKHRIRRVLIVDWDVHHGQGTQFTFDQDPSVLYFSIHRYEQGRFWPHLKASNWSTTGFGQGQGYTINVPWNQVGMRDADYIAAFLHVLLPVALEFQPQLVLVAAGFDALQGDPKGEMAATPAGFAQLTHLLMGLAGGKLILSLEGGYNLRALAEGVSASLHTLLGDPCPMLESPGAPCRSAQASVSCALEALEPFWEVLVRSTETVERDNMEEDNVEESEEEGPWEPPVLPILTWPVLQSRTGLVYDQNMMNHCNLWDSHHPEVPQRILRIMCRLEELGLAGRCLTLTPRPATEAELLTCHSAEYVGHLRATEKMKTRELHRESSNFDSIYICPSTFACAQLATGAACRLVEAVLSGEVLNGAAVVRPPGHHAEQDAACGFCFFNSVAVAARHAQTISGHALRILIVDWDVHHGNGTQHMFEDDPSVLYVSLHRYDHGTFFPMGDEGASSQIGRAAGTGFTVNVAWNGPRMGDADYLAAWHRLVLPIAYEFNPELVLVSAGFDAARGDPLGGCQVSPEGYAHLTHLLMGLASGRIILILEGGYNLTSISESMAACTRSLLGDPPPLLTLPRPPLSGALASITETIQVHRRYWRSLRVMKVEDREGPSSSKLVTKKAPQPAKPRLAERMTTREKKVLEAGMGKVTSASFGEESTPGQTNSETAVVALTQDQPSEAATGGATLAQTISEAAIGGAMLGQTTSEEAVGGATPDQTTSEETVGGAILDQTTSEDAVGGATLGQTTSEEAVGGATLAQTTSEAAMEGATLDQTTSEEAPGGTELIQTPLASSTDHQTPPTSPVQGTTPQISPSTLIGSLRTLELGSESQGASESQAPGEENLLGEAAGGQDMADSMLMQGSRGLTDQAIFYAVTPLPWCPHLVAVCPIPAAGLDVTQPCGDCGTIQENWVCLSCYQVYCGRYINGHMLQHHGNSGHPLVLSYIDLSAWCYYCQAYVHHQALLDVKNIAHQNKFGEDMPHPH
Test: HDAC6 enzyme activity inhibition assay (HDAC Fluorimetric Drug Discovery Kit)
Format: biochemical
Details: for HDAC6 selectivity (fold): HDAC1 vs HDAC6; for IC50: same protocol as the HDAC1 enzyme activity test
How it was run: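 First, compound in 5-fold dilution steps is combined with 0.3 μg enzyme and 10 μM Fluor de Lys-SIRT1 substrate. After 60 min at 30° C, developer is added for 30 min. Fluorescence at Ex 360/Em 460 then gives IC50 values.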

`CN1CCN(CCS(=O)(=O)N(Cc2ccc(-c3nnc(C(F)F)o3)cc2F)c2ccc(F)c(Cl)c2)CC1` [Compound 11552, N-(3-chloro-4-fluorophenyl)-N-(4-(5-(difluoromethyl)-1,3,4-oxadiazol-2-yl)-2-fluorobenzyl)-2-(4-methylpiperazin-1-yl)ethane-1-sulfonamide] was tested, and the “HDAC6 selectivity (fold)” value was 7143 fold and the IC50 was 0.014 µM.
`CC(=O)N1CCN(CCS(=O)(=O)N(Cc2ccc(-c3nnc(C(F)F)o3)cc2F)c2ccc(F)c(Cl)c2)CC1` [Compound 11553, 2-(4-acetylpiperazin-1-yl)-N-(3-chloro-4-fluorophenyl)-N-(4-(5-(difluoromethyl)-1,3,4-oxadiazol-2-yl)-2-fluorobenzyl)ethane-1-sulfonamide] was tested, and the “HDAC6 selectivity (fold)” value was 5882 fold and the IC50 was 0.017 µM.
In the case of `CS(=O)(=O)N1CCN(CCS(=O)(=O)N(Cc2ccc(-c3nnc(C(F)F)o3)cc2F)c2ccc(F)c(Cl)c2)CC1` [Compound 11554, N-(3-chloro-4-fluorophenyl)-N-(4-(5-(difluoromethyl)-1,3,4-oxadiazol-2-yl)-2-fluorobenzyl)-2-(4-(methylsulfonyl)piperazin-1-yl)ethane-1-sulfonamide], the “HDAC6 selectivity (fold)” value is reported as 4348 fold and the IC50 is reported as 0.023 µM.
With `CS(=O)(=O)N(Cc1ncc(-c2nnc(C(F)F)o2)cn1)c1ccccc1` [Compound 11564, N-((5-(5-(difluoromethyl)-1,3,4-oxadiazol-2-yl)pyrimidin-2-yl)methyl)-N-phenylmethanesulfonamide] the “HDAC6 selectivity (fold)” value was 4762 fold and the IC50 was 0.021 µM.
With `CS(=O)(=O)N(Cc1ccc(-c2nnc(C(F)F)o2)nn1)c1ccccc1` [Compound 11566, N-((6-(5-(difluoromethyl)-1,3,4-oxadiazol-2-yl)pyridazin-3-yl)methyl)-N-phenylmethanesulfonamide] the “HDAC6 selectivity (fold)” value was 1124 fold and the IC50 was 0.089 µM.
For `CS(=O)(=O)N1CC(N2CCN(CCS(=O)(=O)N(Cc3ccc(-c4nnc(C(F)F)o4)cc3F)c3ccc(F)c(Cl)c3)CC2)C1` [Compound 11582, N-(3-chloro-4-fluorophenyl)-N-(4-(5-(difluoromethyl)-1,3,4-oxadiazol-2-yl)-2-fluorobenzyl)-2-(4-(1-(methylsulfonyl)azetidin-3-yl)piperazin-1-yl)ethane-1-sulfonamide], the “HDAC6 selectivity (fold)” value was 4348 fold and the IC50 was 0.023 µM.
For `O=S(=O)(CCN1CCN(C2COC2)CC1)N(Cc1ccc(-c2nnc(C(F)F)o2)cc1F)c1ccc(F)c(Cl)c1` [Compound 11583, N-(3-chloro-4-fluorophenyl)-N-(4-(5-(difluoromethyl)-1,3,4-oxadiazol-2-yl)-2-fluorobenzyl)-2-(4-(oxetan-3-yl)piperazin-1-yl)ethane-1-sulfonamide], the “HDAC6 selectivity (fold)” value was 4348 fold and the IC50 was 0.023 µM.
In the case of `O=S(=O)(CCCN1CCOCC1)N(Cc1ccc(-c2nnc(C(F)F)o2)cc1F)c1ccccc1` [Compound 11588, N-(4-(5-(difluoromethyl)-1,3,4-oxadiazol-2-yl)-2-fluorobenzyl)-3-morpholino-N-phenylpropane-1-sulfonamide], the “HDAC6 selectivity (fold)” value is reported as 2273 fold and the IC50 is reported as 0.044 µM.
`CN1CCN(CCCS(=O)(=O)N(Cc2ccc(-c3nnc(C(F)F)o3)cc2F)c2ccccc2)CC1` [Compound 11589, N-(4-(5-(difluoromethyl)-1,3,4-oxadiazol-2-yl)-2-fluorobenzyl)-3-(4-methylpiperazin-1-yl)-N-phenylpropane-1-sulfonamide] was tested, and the “HDAC6 selectivity (fold)” value was 2326 fold and the IC50 was 0.043 µM.
For `CS(=O)(=O)N(Cc1cnc(-c2nnc(C(F)(F)F)o2)nc1)c1ccccc1` [Compound 11606, N-phenyl-N-((2-(5-(trifluoromethyl)-1,3,4-oxadiazol-2-yl)pyrimidin-5-yl)methyl)methanesulfonamide], the “HDAC6 selectivity (fold)” value was 66 fold and the IC50 was 1.52 µM.
With `O=S(=O)(C1CCN(C2COC2)CC1)N(Cc1ccc(-c2nnc(C(F)F)o2)cc1F)c1ccccc1` [Compound 11625, N-(4-(5-(difluoromethyl)-1,3,4-oxadiazol-2-yl)-2-fluorobenzyl)-1-(oxetan-3-yl)-N-phenylpiperidine-4-sulfonamide] the “HDAC6 selectivity (fold)” value was 719 fold and the IC50 was 0.139 µM.
For `CS(=O)(=O)N(Cc1ccc(-c2nnc(C(F)F)o2)cc1)c1cccnc1` [Compound 11628, N-(4-(5-(difluoromethyl)-1,3,4-oxadiazol-2-yl)benzyl)-N-(pyridin-3-yl)methanesulfonamide], the “HDAC6 selectivity (fold)” value was 2083 fold and the IC50 was 0.048 µM.
For `O=S(=O)(CCN1CCCCC1)N(Cc1ccc(-c2nnc(C(F)F)o2)cc1)c1ccccc1` [Compound 11629, N-(4-(5-(difluoromethyl)-1,3,4-oxadiazol-2-yl)benzyl)-N-phenyl-2-(piperidin-1-yl)ethane-1-sulfonamide], the “HDAC6 selectivity (fold)” value was 1041 fold and the IC50 was 0.096 µM.
With `CN1CCN(CCS(=O)(=O)N(Cc2ccc(-c3nnc(C(F)F)o3)cc2)c2ccccc2)CC1` [Compound 11630, N-(4-(5-(difluoromethyl)-1,3,4-oxadiazol-2-yl)benzyl)-2-(4-methylpiperazin-1-yl)-N-phenylethane-1-sulfonamide] the “HDAC6 selectivity (fold)” value was 3225 fold and the IC50 was 0.031 µM.
With `CC(C)(C)OC(=O)N1CCN(CCS(=O)(=O)N(Cc2ccc(-c3nnc(C(F)F)o3)cc2)c2ccccc2)CC1` [Compound 11631, tert-butyl 4-(2-(N-(4-(5-(difluoromethyl)-1,3,4-oxadiazol-2-yl)benzyl)-N-phenylsulfamoyl)ethyl)piperazine-1-carboxylate] the “HDAC6 selectivity (fold)” value was 436 fold and the IC50 was 0.229 µM.
With `C[C@@H]1CN(CCS(=O)(=O)N(Cc2ccc(-c3nnc(C(F)F)o3)cc2)c2ccccc2)C[C@H](C)N1` [Compound 11632, N-(4-(5-(difluoromethyl)-1,3,4-oxadiazol-2-yl)benzyl)-2-((3S,5R)-3,5-dimethylpiperazin-1-yl)-N-phenylethane-1-sulfonamide] the “HDAC6 selectivity (fold)” value was 1587 fold and the IC50 was 0.063 µM.
`CC(=O)N1CCN(CCS(=O)(=O)N(Cc2ccc(-c3nnc(C(F)F)o3)cc2)c2ccccc2)CC1` [Compound 11633, 2-(4-acetylpiperazin-1-yl)-N-(4-(5-(difluoromethyl)-1,3,4-oxadiazol-2-yl)benzyl)-N-phenylethane-1-sulfonamide] was tested, and the “HDAC6 selectivity (fold)” value was 2173 fold and the IC50 was 0.046 µM.
`CS(=O)(=O)N1CCN(CCS(=O)(=O)N(Cc2ccc(-c3nnc(C(F)F)o3)cc2)c2ccccc2)CC1` [Compound 11634, N-(4-(5-(difluoromethyl)-1,3,4-oxadiazol-2-yl)benzyl)-2-(4-(methylsulfonyl)piperazin-1-yl)-N-phenylethane-1-sulfonamide] was tested, and the “HDAC6 selectivity (fold)” value was 2083 fold and the IC50 was 0.048 µM.
With `CS(=O)(=O)N(Cc1ccc(-c2nnc(C(F)F)o2)cc1)c1cncnc1` [Compound 11636, N-(4-(5-(difluoromethyl)-1,3,4-oxadiazol-2-yl)benzyl)-N-(pyrimidin-5-yl)methanesulfonamide] the “HDAC6 selectivity (fold)” value was 862 fold and the IC50 was 0.116 µM.
For `O=S(=O)(CCN1CCOCC1)N(Cc1ccc(-c2nnc(C(F)F)o2)cc1)c1ccccc1` [Compound 11655, N-(4-(5-(difluoromethyl)-1,3,4-oxadiazol-2-yl)benzyl)-2-morpholino-N-phenylethanesulfonamide], the “HDAC6 selectivity (fold)” value was 1724 fold and the IC50 was 0.058 µM.
